± gives the expanded uncertainty stated by the source.
What was measured:
[1] = DTA
[2] = Molar enthalpy of transition or fusion; details: DSC
[3] = molar heat capacity at constant pressure; details: 101.33 kPa, Small sample (50 mg) DSC

O=[N+]([O-])[O-].O=[N+]([O-])[O-].[Li+].[Rb+] [lithium rubidium nitrate]
Crystal
Details	Molar enthalpy of transition or fusion [kcal/mol]	Triple point temperature [K]
[1]	–	460 ± 1
[2]	5.31 ± 0.43	–

[3]
Details	molar heat capacity at constant pressure [J/K/mol]
315.6 K, Crystal	150.8 ± 3
320.6 K, Crystal	166.6 ± 3.4
325.6 K, Crystal	171.8 ± 3.4
330.6 K, Crystal	190.8 ± 3.8
335.6 K, Crystal	179.2 ± 3.6
340.6 K, Crystal	184.8 ± 3.6
345.6 K, Crystal	184 ± 3.6
350.6 K, Crystal	200 ± 4
355.6 K, Crystal	204 ± 4
360.6 K, Crystal	222 ± 4
365.6 K, Crystal	222 ± 4
370.6 K, Crystal	190.6 ± 3.8
375.6 K, Crystal	206 ± 4
380.6 K, Crystal	189 ± 3.8
385.6 K, Crystal	196.4 ± 4
390.5 K, Crystal	206 ± 4
395.5 K, Crystal	224 ± 4
400.5 K, Crystal	191.4 ± 3.8
405.5 K, Crystal	210 ± 4
410.5 K, Crystal	195.4 ± 4
420.5 K, Crystal	206 ± 4
425.5 K, Crystal	224 ± 4
435.5 K, Crystal	232 ± 4
445.5 K, Crystal	262 ± 6
460.5 K, Liquid	374 ± 8
470.5 K, Liquid	346 ± 8
475.5 K, Liquid	342 ± 6
480.5 K, Liquid	364 ± 8
485.5 K, Liquid	382 ± 8
490.5 K, Liquid	384 ± 8

O=[N+]([O-])[O-].[Li+] [lithium nitrate]
Crystal
Details	Molar enthalpy of transition or fusion [kcal/mol]	Triple point temperature [K]
[1]	–	525 ± 1
[2]	5.86 ± 0.478	–

[3]
Details	molar heat capacity at constant pressure [J/K/mol]
310.7 K, Crystal	63.7 ± 26
315.7 K, Crystal	56.8 ± 23
320.6 K, Crystal	117 ± 47
325.6 K, Crystal	114 ± 46
330.6 K, Crystal	80.3 ± 32
335.6 K, Crystal	72.2 ± 29
340.6 K, Crystal	63.4 ± 25
345.6 K, Crystal	78.2 ± 31
350.6 K, Crystal	88.7 ± 36
355.6 K, Crystal	83.5 ± 33
360.6 K, Crystal	80.8 ± 32
365.6 K, Crystal	81.5 ± 33
370.6 K, Crystal	75.6 ± 30
375.6 K, Crystal	79.1 ± 32
380.6 K, Crystal	77.3 ± 31
385.6 K, Crystal	80.7 ± 32
390.6 K, Crystal	81.1 ± 32
395.6 K, Crystal	83.9 ± 34
400.6 K, Crystal	87.5 ± 35
405.5 K, Crystal	86.4 ± 35
410.5 K, Crystal	81.9 ± 33
415.5 K, Crystal	90.3 ± 36
420.5 K, Crystal	87.1 ± 35
425.5 K, Crystal	86.2 ± 34
430.5 K, Crystal	91.5 ± 37
435.6 K, Crystal	94.4 ± 38
440.6 K, Crystal	95.6 ± 38
445.5 K, Crystal	88.4 ± 35
450.5 K, Crystal	93.6 ± 38
455.4 K, Crystal	90.4 ± 36
460.3 K, Crystal	93.1 ± 37
465.4 K, Crystal	96.3 ± 38
470.5 K, Crystal	97.4 ± 39
475.5 K, Crystal	91.5 ± 37
480.6 K, Crystal	94.5 ± 38
485.5 K, Crystal	95.6 ± 38
490.5 K, Crystal	99.4 ± 40
495.5 K, Crystal	102 ± 41
500.5 K, Crystal	98.8 ± 40
505.5 K, Crystal	103 ± 41
510.5 K, Crystal	110 ± 44
515.5 K, Crystal	125 ± 50
520.5 K, Crystal	127 ± 51
535.5 K, Liquid	114 ± 46
540.5 K, Liquid	122 ± 49
545.5 K, Liquid	122 ± 49
550.5 K, Liquid	125 ± 50
555.5 K, Liquid	117 ± 47
560.5 K, Liquid	121 ± 48
570.5 K, Liquid	122 ± 49
575.5 K, Liquid	123 ± 49
580.5 K, Liquid	116 ± 46
585.5 K, Liquid	121 ± 48
590.5 K, Liquid	119 ± 48
595.5 K, Liquid	122 ± 49
600.5 K, Liquid	119 ± 48
610.5 K, Liquid	113 ± 45
615.5 K, Liquid	120 ± 48
620.5 K, Liquid	110 ± 44

O=[N+]([O-])[O-].[Rb+] [rubidium nitrate]
Details	Molar enthalpy of transition or fusion, Crystal 1 [kcal/mol]	Molar enthalpy of transition or fusion, Crystal 2 [kcal/mol]	Molar enthalpy of transition or fusion, Crystal 3 [kcal/mol]	Molar enthalpy of transition or fusion, Crystal 4 [kcal/mol]	Triple point temperature, Crystal 1 [K]	Triple point temperature, Crystal 2 [K]	Triple point temperature, Crystal 3 [K]	Triple point temperature, Crystal 4 [K]
[1]	–	–	–	–	583 ± 1	555 ± 1	500 ± 1	437 ± 1
[2]	1.12 ± 0.098	0.299 ± 0.0335	0.554 ± 0.0526	0.889 ± 0.0789	–	–	–	–

[3]
Details	molar heat capacity at constant pressure [J/K/mol]
325.6 K, Crystal 4	99 ± 2
330.6 K, Crystal 4	99.5 ± 2
335.6 K, Crystal 4	101 ± 2
340.6 K, Crystal 4	102 ± 2
345.6 K, Crystal 4	101 ± 2
350.6 K, Crystal 4	101 ± 2
355.6 K, Crystal 4	102 ± 2
360.6 K, Crystal 4	100 ± 2
365.6 K, Crystal 4	104 ± 2
370.6 K, Crystal 4	104 ± 2
375.6 K, Crystal 4	106 ± 2
380.6 K, Crystal 4	107 ± 2
385.6 K, Crystal 4	109 ± 2
390.6 K, Crystal 4	109 ± 2
395.6 K, Crystal 4	110 ± 2
400.6 K, Crystal 4	111 ± 2
405.6 K, Crystal 4	112 ± 2
410.6 K, Crystal 4	113 ± 2
415.6 K, Crystal 4	113 ± 2
420.6 K, Crystal 4	114 ± 2
425.5 K, Crystal 4	123 ± 3
430.5 K, Crystal 4	118 ± 2
435.5 K, Crystal 4	123 ± 3
440.5 K, Crystal 3	833 ± 17
445.5 K, Crystal 3	134 ± 3
450.5 K, Crystal 3	134 ± 3
455.5 K, Crystal 3	135 ± 3
460.5 K, Crystal 3	136 ± 3
465.5 K, Crystal 3	136 ± 3
470.5 K, Crystal 3	138 ± 3
475.5 K, Crystal 3	138 ± 3
480.5 K, Crystal 3	138 ± 3
485.5 K, Crystal 3	138 ± 3
490.5 K, Crystal 3	139 ± 3
495.5 K, Crystal 3	139 ± 3
500.5 K, Crystal 2	303 ± 6
505.5 K, Crystal 2	368 ± 7
510.5 K, Crystal 2	175 ± 4
515.5 K, Crystal 2	132 ± 3
520.5 K, Crystal 2	134 ± 3
525.5 K, Crystal 2	135 ± 3
530.5 K, Crystal 2	136 ± 3
535.5 K, Crystal 2	136 ± 3
540.5 K, Crystal 2	136 ± 3
545.5 K, Crystal 2	137 ± 3
550.5 K, Crystal 2	161 ± 3
555.5 K, Crystal 1	151 ± 3
560.5 K, Crystal 1	399 ± 8
565.5 K, Crystal 1	112 ± 2
570.5 K, Crystal 1	113 ± 2
575.5 K, Crystal 1	111 ± 2
580.5 K, Crystal 1	115 ± 2
585.5 K, Liquid	744 ± 15
590.5 K, Liquid	249 ± 5
595.5 K, Liquid	157 ± 3
600.5 K, Liquid	140 ± 3
605.5 K, Liquid	138 ± 3
610.5 K, Liquid	138 ± 3
615.5 K, Liquid	138 ± 3
620.5 K, Liquid	137 ± 3

From the NIST ThermoML archive (doi:10.1016/j.tca.2013.06.040)
